≈ marks a conversion by molar mass, not a printed value. Where only a bound is given, the exact number is not on record here.

What all share (type): functional
One experiment concerns Human alphaherpesvirus 3. The experiment in a line: Compound was tested for antiherpes activity against Varicella zoster virus(OKA) in HEL cells.
The next experiment has as its system Human alphaherpesvirus 2. As to the kind of experiment: Compound was tested for antiherpes activity against Herpes simplex virus-2(G) in E6SM cell cultures.
A further experiment relates to Human alphaherpesvirus 1. As to the kind of experiment: Compound was tested for antiherpes activity against Herpes simplex virus-1(KOS) in E6SM cell cultures.
A further experiment concerns Cytomegalovirus. As to the kind of experiment: Compound was tested for antiherpes activity against Cytomegalovirus virus(AD 169) in HEL cells. Particulars: Human betaherpesvirus 5.

On to `Nc1nc2c(ncn2COCCO)c(=O)[nH]1` [ACYCLOVIR], for which the results for the MIC against Human alphaherpesvirus 3, in the experiment with Human alphaherpesvirus 2 and against Human alphaherpesvirus 1 were 0.5 µg/mL (≈ 2.22 µM), 0.004 µg/mL (≈ 0.0178 µM) and 0.004 µg/mL (≈ 0.0178 µM), respectively.
With `O=c1[nH]c(=O)n(C2COC(CO)C(O)C2O)cc1I` (stereo not drawn), the MIC with Human alphaherpesvirus 3 was > 50 µg/mL; against Human alphaherpesvirus 2, 70 µg/mL (≈ 182 µM); with Cytomegalovirus, > 50 µg/mL; in the experiment with Human alphaherpesvirus 1, 7 µg/mL (≈ 18.2 µM).
With `Nc1ccn(C2COC(CO)C(O)C2O)c(=O)n1` (stereo not drawn), the MIC came to 10 µg/mL (≈ 38.9 µM) in the experiment on Human alphaherpesvirus 3, 70 µg/mL (≈ 272 µM) against Human alphaherpesvirus 2, 10 µg/mL (≈ 38.9 µM) against Cytomegalovirus and 70 µg/mL (≈ 272 µM) with Human alphaherpesvirus 1.
For the compound `O=c1ccn(C2COC(CO)C(O)C2O)c(=O)[nH]1` (stereo not drawn), the MIC with Human alphaherpesvirus 3 was > 50 µg/mL; against Human alphaherpesvirus 2, > 200 µg/mL; in the experiment with Cytomegalovirus, > 50 µg/mL; in the experiment on Human alphaherpesvirus 1, 150 µg/mL (≈ 581 µM).
`Nc1nc2c(ncn2COC(CO)CO)c(=O)[nH]1` [GANCICLOVIR]: the figures for the MIC in the experiment on Human alphaherpesvirus 2, with Cytomegalovirus and with Human alphaherpesvirus 1 were 0.002 µg/mL (≈ 0.00784 µM), 1 µg/mL (≈ 3.92 µM) and 0.0007 µg/mL (≈ 0.00274 µM), respectively.

The values are drawn from ChEMBL document CHEMBL1129103, “Synthesis and antiviral activity of 2-deoxy-1,5-anhydro-D-mannitol nucleosides containing a pyrimidine base moiety” (1996).
